Assay results: publication PMC8009520, “Exploration of TRPM8 Binding Sites by β-Carboline-Based Antagonists and Their In Vitro Characterization and In Vivo Analgesic Activities” (Journal of Medicinal Chemistry, 2020)
Where “and” joins values, the source holds several entries; their conditions need not be identical. Equal entries are not always repeated. Where two headings read alike, the source gives them in different places.

Key:
[1] = molecular target: T1, rat isoform of TRPM8 channels (Rattus norvegicus, UniProt Q8R455); experiment: Ca2+ fluorimetric assay, menthol-activated channel; assay type: cell-based
T1 construct: expressed in transfected cells
T1 sequence (Q8R455 whole entry, canonical isoform): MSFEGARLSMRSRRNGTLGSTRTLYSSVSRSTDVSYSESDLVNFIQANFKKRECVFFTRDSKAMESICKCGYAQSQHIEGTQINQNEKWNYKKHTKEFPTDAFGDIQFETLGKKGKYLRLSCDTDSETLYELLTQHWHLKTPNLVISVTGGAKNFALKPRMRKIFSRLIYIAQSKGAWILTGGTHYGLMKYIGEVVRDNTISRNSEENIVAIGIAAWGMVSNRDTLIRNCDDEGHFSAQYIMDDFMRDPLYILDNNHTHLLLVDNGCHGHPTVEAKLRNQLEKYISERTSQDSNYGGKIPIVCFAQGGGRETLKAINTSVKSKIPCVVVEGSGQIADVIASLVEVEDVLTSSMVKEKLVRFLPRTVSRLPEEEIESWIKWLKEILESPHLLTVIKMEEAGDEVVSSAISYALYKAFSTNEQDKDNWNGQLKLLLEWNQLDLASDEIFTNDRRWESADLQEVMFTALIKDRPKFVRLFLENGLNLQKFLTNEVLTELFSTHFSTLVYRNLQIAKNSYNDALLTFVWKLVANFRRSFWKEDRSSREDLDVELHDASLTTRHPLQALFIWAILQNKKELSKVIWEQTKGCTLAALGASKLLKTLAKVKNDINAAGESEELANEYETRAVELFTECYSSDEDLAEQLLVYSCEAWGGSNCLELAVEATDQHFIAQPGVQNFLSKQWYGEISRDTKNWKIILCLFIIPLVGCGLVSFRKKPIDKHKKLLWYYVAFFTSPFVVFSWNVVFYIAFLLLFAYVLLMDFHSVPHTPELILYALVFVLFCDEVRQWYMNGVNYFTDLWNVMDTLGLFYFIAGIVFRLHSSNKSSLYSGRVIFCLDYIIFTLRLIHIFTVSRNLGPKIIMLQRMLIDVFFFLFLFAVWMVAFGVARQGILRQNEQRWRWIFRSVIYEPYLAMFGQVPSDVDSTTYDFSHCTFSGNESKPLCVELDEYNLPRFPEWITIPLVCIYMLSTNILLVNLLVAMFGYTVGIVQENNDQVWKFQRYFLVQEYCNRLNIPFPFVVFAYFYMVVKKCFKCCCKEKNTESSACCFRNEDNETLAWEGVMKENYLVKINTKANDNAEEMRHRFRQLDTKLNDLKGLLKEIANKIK
Procedure: TRPM8 blocker activity of all synthesized compounds was tested by Ca^2+ fluorimetric assays using HEK-293 cells stably expressing the rat isoform of TRPM8 channels, using menthol and AMTB as prototypical agonist and antagonist, respectively.
For measurement of the potency of the compounds, fluorimetric experiments were performed using HEK-293 cells (CRL-1573TM, American Type Culture Collection, LGC Promochem, Molsheim, France) that stably express rat TRPM8. The cells were seeded in 96-well plates (Corning Incorporated, Corning, NY) at a cell density of 40 000 cells 2 days before treatment. On the day of treatment, the medium was replaced with 100 μL of the dye loading solution Fluo-4 NW supplemented with probenecid 2.5 mM.
The tested molecules dissolved in DMSO were added at the desired concentrations, and the plates were incubated in darkness at 37 °C in a humidified atmosphere of 5% CO2 for 60 min. The fluorescence was measured using instrument settings appropriate for excitation at 485 nm and emission at 535 nm (POLARstar Omega BMG LABtech). A baseline recording of four cycles was recorded prior to stimulation with the agonist (100 μM menthol for TRPM8). The TRPM8 antagonist, 10 μM AMTB, was added to the medium containing the corresponding agonist to induce channel blockade. The changes in fluorescence intensity were recorded during 15 cycles more. The higher concentration of DMSO used in the experiment was added to the control wells. The cells’ fluorescence was measured before and after the addition of various concentrations of test compounds. The fluorescence values obtained are normalized to that prompted by the corresponding agonist (for channel activating compounds) or upon agonist and antagonist coexposure (for channel blocker compounds).

hTRPV1 = molecular target: T2, hTRPV1 (Homo sapiens, UniProt Q8NER1); experiment: Selectivity fluorimetric assay, CHO-K1 cells; assay type: cell-based; settings: capsaicine as reference agonist
T2 construct: expressed in transfected cells; host or cells: CHO-K1, stably transfected
T2 sequence (Q8NER1 whole entry): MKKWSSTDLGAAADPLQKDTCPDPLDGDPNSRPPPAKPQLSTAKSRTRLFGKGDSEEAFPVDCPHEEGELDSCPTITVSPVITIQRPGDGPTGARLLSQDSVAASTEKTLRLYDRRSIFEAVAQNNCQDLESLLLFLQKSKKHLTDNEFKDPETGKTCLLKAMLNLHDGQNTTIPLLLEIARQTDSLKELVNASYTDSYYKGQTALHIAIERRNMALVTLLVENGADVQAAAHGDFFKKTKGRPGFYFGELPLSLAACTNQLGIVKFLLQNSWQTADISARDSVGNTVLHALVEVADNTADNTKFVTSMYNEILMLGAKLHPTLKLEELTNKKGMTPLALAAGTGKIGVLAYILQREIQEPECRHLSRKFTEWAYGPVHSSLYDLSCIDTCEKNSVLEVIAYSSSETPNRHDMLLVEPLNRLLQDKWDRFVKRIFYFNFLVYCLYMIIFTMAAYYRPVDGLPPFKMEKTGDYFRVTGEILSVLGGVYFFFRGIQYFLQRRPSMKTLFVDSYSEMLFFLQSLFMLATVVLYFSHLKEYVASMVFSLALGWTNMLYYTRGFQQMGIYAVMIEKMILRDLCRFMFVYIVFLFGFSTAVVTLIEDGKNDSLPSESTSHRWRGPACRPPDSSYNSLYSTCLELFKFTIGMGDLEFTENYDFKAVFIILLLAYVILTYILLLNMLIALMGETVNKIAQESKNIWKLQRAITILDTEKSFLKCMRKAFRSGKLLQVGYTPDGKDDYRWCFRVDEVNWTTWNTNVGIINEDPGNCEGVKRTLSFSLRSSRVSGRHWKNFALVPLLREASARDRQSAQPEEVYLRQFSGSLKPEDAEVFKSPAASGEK

hTRPA1 = molecular target: T3, hTRPA1 (Homo sapiens, UniProt O75762); experiment: Selectivity fluorimetric assay, HEK-293 cells; assay type: cell-based; settings: AITC as reference agonist
T3 construct: expressed in transfected cells; host or cells: HEK-293, stably transfected
T3 sequence (O75762 whole entry): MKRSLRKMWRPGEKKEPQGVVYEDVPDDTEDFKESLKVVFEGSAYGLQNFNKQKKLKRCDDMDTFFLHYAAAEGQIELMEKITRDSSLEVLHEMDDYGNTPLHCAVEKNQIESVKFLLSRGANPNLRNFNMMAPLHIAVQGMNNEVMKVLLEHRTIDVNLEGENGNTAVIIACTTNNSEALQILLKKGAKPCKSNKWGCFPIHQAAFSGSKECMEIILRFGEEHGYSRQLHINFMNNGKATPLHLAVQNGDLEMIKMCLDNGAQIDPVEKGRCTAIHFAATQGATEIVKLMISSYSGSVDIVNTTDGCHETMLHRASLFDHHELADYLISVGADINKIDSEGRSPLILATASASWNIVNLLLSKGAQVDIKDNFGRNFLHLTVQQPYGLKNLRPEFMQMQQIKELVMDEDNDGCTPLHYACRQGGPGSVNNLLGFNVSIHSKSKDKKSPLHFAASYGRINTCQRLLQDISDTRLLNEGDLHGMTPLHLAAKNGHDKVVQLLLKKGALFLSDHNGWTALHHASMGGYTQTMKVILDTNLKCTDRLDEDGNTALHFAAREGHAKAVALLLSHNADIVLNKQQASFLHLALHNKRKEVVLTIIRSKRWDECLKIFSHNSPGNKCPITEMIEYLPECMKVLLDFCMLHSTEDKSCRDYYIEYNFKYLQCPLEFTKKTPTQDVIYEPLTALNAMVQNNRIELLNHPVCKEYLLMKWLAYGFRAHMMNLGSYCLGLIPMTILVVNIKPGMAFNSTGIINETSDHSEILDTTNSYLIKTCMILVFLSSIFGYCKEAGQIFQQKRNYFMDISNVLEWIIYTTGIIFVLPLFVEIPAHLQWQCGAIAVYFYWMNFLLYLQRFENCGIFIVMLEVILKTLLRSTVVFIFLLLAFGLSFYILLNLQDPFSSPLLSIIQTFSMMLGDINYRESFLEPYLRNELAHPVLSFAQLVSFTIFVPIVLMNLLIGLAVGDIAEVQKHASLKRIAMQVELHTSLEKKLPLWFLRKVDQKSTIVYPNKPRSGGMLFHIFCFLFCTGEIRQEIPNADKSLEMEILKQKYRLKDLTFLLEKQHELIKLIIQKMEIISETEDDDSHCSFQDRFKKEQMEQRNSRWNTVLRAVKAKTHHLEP

hNav1.7 = molecular target: T4, hNav1.7 (Homo sapiens, UniProt Q15858); experiment: Selectivity fluorimetric assay, HEK-293 cells; assay type: cell-based; settings: veratridine as reference agonist
T4 construct: expressed in transfected cells; host or cells: HEK-293, stably transfected
T4 sequence (Q15858 whole entry): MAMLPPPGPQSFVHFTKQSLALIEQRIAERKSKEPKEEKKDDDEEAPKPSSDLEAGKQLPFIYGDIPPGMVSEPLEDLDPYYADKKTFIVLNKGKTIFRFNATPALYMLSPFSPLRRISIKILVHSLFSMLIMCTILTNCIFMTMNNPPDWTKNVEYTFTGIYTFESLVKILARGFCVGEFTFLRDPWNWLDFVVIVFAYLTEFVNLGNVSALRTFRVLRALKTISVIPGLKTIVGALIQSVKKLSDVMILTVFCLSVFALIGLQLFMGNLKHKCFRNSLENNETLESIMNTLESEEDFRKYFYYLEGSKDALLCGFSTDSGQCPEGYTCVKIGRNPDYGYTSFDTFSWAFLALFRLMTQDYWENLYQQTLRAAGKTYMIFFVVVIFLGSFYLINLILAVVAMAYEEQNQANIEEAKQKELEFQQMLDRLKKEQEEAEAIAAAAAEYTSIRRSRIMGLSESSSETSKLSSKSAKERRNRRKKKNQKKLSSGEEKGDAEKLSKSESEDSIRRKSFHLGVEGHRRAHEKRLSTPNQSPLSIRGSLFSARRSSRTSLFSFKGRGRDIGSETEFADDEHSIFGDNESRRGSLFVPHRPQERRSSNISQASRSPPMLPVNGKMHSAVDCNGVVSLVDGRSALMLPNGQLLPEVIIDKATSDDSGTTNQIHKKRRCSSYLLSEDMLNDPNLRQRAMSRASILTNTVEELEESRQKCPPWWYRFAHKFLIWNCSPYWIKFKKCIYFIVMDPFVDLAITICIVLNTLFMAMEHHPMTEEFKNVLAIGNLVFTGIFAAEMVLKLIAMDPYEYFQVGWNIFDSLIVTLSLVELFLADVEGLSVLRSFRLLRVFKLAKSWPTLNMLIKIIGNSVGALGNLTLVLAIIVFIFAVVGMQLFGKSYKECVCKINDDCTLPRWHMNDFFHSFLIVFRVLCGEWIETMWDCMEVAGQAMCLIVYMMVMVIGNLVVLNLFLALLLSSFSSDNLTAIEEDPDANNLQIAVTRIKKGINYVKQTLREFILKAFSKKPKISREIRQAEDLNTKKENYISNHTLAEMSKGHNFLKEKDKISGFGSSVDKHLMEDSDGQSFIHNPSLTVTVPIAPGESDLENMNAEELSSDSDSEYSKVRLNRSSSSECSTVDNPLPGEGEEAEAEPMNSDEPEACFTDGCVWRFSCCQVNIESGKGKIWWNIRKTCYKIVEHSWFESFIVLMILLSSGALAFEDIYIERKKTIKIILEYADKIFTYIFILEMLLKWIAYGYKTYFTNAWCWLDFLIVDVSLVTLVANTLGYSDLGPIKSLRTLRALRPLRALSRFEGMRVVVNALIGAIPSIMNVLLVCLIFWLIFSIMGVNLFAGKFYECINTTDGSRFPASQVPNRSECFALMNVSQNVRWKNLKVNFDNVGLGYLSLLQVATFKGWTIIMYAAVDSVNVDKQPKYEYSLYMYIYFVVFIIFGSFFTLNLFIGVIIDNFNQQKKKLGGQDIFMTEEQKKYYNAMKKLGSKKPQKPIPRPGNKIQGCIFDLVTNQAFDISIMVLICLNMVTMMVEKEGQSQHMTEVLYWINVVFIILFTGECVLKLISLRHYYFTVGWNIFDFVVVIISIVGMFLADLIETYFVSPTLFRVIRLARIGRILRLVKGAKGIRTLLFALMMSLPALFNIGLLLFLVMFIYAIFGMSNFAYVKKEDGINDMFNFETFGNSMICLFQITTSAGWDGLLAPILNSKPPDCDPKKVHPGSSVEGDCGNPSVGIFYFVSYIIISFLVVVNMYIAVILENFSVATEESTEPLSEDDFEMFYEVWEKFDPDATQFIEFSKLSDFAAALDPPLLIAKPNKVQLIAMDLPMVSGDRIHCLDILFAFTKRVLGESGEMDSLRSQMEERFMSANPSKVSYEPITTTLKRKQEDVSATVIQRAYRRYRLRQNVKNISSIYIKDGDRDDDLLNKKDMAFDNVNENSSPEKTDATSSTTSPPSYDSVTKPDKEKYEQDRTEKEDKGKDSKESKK

[2] = In vitro metabolic stability using liver microsomes; assay type: in vitro ADME, human
Procedure: Compound 4 was used as reference, considering that its main pitfall was represented by metabolic instability that the newly synthesized compounds were aimed in overcoming. […] Each sample (2.5 mM) was incubated with 100 mM phosphate buffer (pH 7.4) and 20 mg/mL of liver microsomes (Thermo Fisher Scientific, Bremen, Germany). After preincubation in water bath for 5 min, the mixture was incubated with 20 mM NADPH (protocol I) at 37 °C for 60 min in a Thermomixer comfort (Eppendorf, Hamburg, Germany). For the measurement of UGT activity the microsomes were preincubated with alamethicin, which forms pores in microsomal membranes, promoting access of substrate and cofactor to UGT enzymes. Subsequently, each sample was incubated with 100 mM phosphate buffer, 500 mM magnesium chloride, 10 mM NADPH, and 20 mM UDP-GlcUA at 37 °C for 60 min. Finally, the reactions from both protocols (protocols I and II) were stopped by the addition of 200 μL of ice-cold methanol, and then samples were centrifuged at 10 000 rpm at 25 °C for 5 min (Eppendorf microcentrifuge 5424, Hamburg, Germany). The supernatants were collected and injected in UHPLC-PDA. The control at 0 min was obtained by addition of the organic solvent immediately after incubation with microsomes. […] The extent of metabolism is expressed as a percentage of the parent compound turnover using the following equation, as previously described:[43] […]

human TRPM8 [3] = molecular target: T5, human TRPM8 (Homo sapiens, UniProt Q7Z2W7); settings: HEK-293 cells expressing human TRPM8, compound 300 nM
human TRPM8 [4] = molecular target: T5, human TRPM8; experiment: cell-based; settings: HEK293, read-out: % Inhibition 300 μM menthol-evoked currents at 300 nM compounds, HEK-293 cells expressing human TRPM8, compound 300 nM
C57/BL6 mice = experiment: Oxaliplatin-induced cold allodynia, acetone drop method; assay type: in vivo
Procedure: This effect was still evident 30 min after administration of a 30 μg dose (Figure 6).
Data are given as the mean ± SEM n = 6. Statistical analysis was two-way ANOVA followed by post hoc Bonferroni test by multiple comparison: ***p < 0.001, ****p < 0.0001.
For the oxaliplatin-induced neuropathic pain assay, oxaliplatin (Tocris) was dissolved in water with gentle warming and was subcutaneously (sc) injected on days 1, 3, and 5 at a 6 mg/kg dose. The day 7 after administration, experiments were performed. Together with oxaliplatin injection, saline and a 5% mannitol solution were intraperitoneally injected to prevent kidney damage and dehydration. 31a stock was prepared in DMSO (Sigma-Aldrich) and diluted in saline for injections.
Cold chemical thermal sensitivity was assessed using acetone drop method.[18b] Mice were placed in a metal mesh cage and allowed to habituate for approximately 30 min in order to acclimatize them. Freshly dispensed acetone drop (10 μL) was applied gently onto the mid-plantar surface of the hind paw. Cold chemical sensitive reaction with respect to paw licking was recorded as a positive response (nociceptive pain response). The responses were measured for 20 s with a digital stopwatch. For each measurement, the paw was sampled twice and the mean was calculated. The interval between each application of acetone was approximately 5 min.

Swiss CD1 mice = experiment: CCI neuropathic pain model, thermal gradient ring; assay type: in vivo
Excerpt: Further we investigated the efficacy of 31a in a chronic constriction injury (CCI) model of neuropathic pain, using a thermal gradient ring assay. This assay deeply differs from the canonical reflexive measures of nociception, in which the end point is withdrawal to a noxious stimulus, a fact that has been questioned during the past years for their unsatisfactory translation.[34] In particular, this test integrates information on temperature perception distinguishing exploratory behavior from thermal preference behavior.[35a]
The mean temperature to which the sham animal located during the observation time was 27.9 °C ± 0.35 °C (Figure 7A), and no statistical differences were evidenced at the different time points (Figure 7B). […] It is questionable why this transient effect was recorded, but it must be considered that TRPM8 antagonists are able to decrease the body temperature.
Neuropathic pain behavior was induced by ligation of the sciatic nerve as described previously.[27d] […] Drug effects were evaluated 7 and 14 days after ligation.
We utilized the thermal gradient ring from Ugo-Basile previously using a modified protocol from Touska et al., 2016.[35] […] On day 2, mice were injected and 30 min after were placed in the apparatus and measured for 60 min using 15–40 °C. […]

[5] = Time-course cis to trans epimerization stability (HPLC); assay type: physicochemical; settings: during patch-clamp electrophysiology assays
Procedure: In this case, a different chemical approach is required because of the minor reactivity of anilines. Intermediates THBC 32a and 32b were coupled with 3CF3 or 2F or 4-F-phenyl isocyanate in basic medium of TEA. […] Absolute configuration was determined as described above. The formation of the cis intermediates, which was not observed with the N-benzyl or N-alkyl analogs, can be explained by the increased stability of the kinetic control species due to the higher rigidity of this structure. […] In addition, the corresponding C-11a epimers 36a′–38a′ could be obtained directly by reaction of 32b with the corresponding isocyanates and TEA at 60 °C for 30 min in 39–45% yields.
Figure S1: Time-course trans (36a’-38a’) / cis (36b-38b) HPLC peak area ratio in physiological
buffer (PBS, panel A) and methanol (Panel B).

TRPM8 = test system: TRPM8; set-up: method as in PMID 26847872, PMID 25125580; settings: patch-clamp recordings; 18b; cited from earlier work
[6] = HEK-293 cells stably expressing rat TRPM8, menthol as agonist, mean ± SD of at least three measurements, read-out: IC50
[7] = Table 2, Ca2+ fluorimetric assay, read-out: IC50 Ca2+

Compound | IC50 [1, 6] | IC50 [1, 7] [nM] | activity as agonist or antagonist on TRPV1 (hTRPV1) | activity as agonist or antagonist on TRPA1 (hTRPA1) | activity as agonist or antagonist on Nav1.7 (hNav1.7) | further results
COC(=O)CC[C@H]1N[C@H](C(=O)NCc2ccc(F)cc2)Cc2c1[nH]c1ccccc21 [11a, Methyl 3-((1R,3S)-3-((4-Fluorobenzyl)carbamoyl)-2,3,4,9-tetrahydro-1H-pyrido[3,4-b]indol-1-yl)propanoate] | 800 nM and 1100 nM | 1100 ± 500 | no activity as agonists or antagonists | no activity as agonists or antagonists | no activity as agonists or antagonists | turnover in absence of metabolic cofactors ([2]; 60 min with liver microsomes, no NADPH or UDP-GlcUA/NADPH): 66.5 ± 3.8%
O=C(O)CC[C@H]1N[C@H](C(=O)NCc2ccc(F)cc2)Cc2c1[nH]c1ccccc21 [12a, 3-((1R,3S)-3-((4-Fluorobenzyl)carbamoyl)-2,3,4,9-tetrahydro-1H-pyrido[3,4-b]indol-1-yl)propanoic Acid] | 5000 ± 1200 nM | 5000 ± 1200 | – | – | – | % Inhibition 300 μM menthol-evoked currents at 300 nM compounds (human TRPM8 [3]): 34.1±9.6%; inhibition at 0.3 µM (human TRPM8 [4]): 34%
O=C1[C@@H]2Cc3c([nH]c4ccccc34)[C@@H](c3ccc(Cl)cc3)N2C(=O)N1Cc1ccc(F)cc1 [31a, (5R,11aS)-5-(4-Chlorophenyl)-2-(4-fluorobenzyl)-5,6,11,11a-tetrahydro-1H-imidazo[1′,5′:1,6]pyrido[3,4-b]indole-1,3(2H)-dione] | 500 ± 300 nM | >30000 | no activity as agonists or antagonists | no activity as agonists or antagonists | no activity as agonists or antagonists | rTRPM8 IC50 (calcium microfluorimetric assays) ([1]; supplementary xlsx): > 30 µM; metabolic turnover, phase I + phase II ([2]; protocol II, NADPH and UDP-GlcUA, 37 °C, 60 min): 46.0 ± 2.3%; inhibition of OXP-induced cold allodynia (paw licking) (C57/BL6 mice; 1 μg sc, single administration): not effective; inhibition of OXP-induced cold allodynia (paw licking) (C57/BL6 mice; 10 μg sc): remarkable inhibitory effect; inhibition of OXP-induced cold allodynia (paw licking) (C57/BL6 mice; 30 μg sc): remarkable inhibitory effect; inhibition of OXP-induced cold allodynia 30 min after administration (C57/BL6 mice; 30 μg sc, 30 min): still evident; time of maximum inhibitory effect (C57/BL6 mice; 10 and 30 μg sc): 15 min; mean preferred temperature (Swiss CD1 mice; CCI mice 14 days after ligation, 11.5 mg/kg ip, gradient 15-40 °C): 33.30 °C; effect on temperature preferences (Swiss CD1 mice; sham-mice): No effects
O=C1[C@@H]2Cc3c([nH]c4ccccc34)[C@H](c3ccc(F)cc3)N2C(=O)N1c1cccc(C(F)(F)F)c1 [36b, (5S,11aS)-5-(4-Fluorophenyl)-2-(3-(trifluoromethyl)phenyl)-5,6,11,11a-tetrahydro-1H-imidazo[1′,5′:1,6]pyrido[3,4-b]indole-1,3(2H)-dione] | 200 ± 200 nM | 200 ± 200 | no activity as agonists or antagonists | no activity as agonists or antagonists | no activity as agonists or antagonists | IC50 ([1]; supplementary xlsx, read-out: rTRPM8 IC50 (calcium microfluorimetric assays)): 300 ± 400 nM; percentage of epimerization [5]: negligible
c1ccc(CN(CCc2c[nH]c3ccccc23)Cc2ccccc2)cc1 [compound 3] | – | – | – | – | – | IC50 (TRPM8): 367 nM
